The source of these data is patent US10375956B2, “Herbicidally active 2-(substituted-phenyl)-cyclopentane-1,3-dione compounds and derivatives thereof” (Syngenta Limited, priority 2013, dated 2019).

The structures appear in SMILES notation. Read-outs that look alike come from different tables or passages of the source.

Assay type in all cases: in vivo
Assay [1] has as its system Alopecurus myosuroides (ALOMY). Briefly: Test 1 glasshouse assay, pre-emergence herbicidal activity. The note with it: 312 h, visual evaluation after 13 days, read-out: Percentage phytotoxicity ALOMY. In outline: (§1)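 Pots are sprayed pre-emergence, one day after sowing, with the technical active ingredient in an acetone/water mixture containing 0.5% Tween 20. After 13 days under controlled glasshouse conditions, damage is rated visually as percent phytotoxicity.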

Assay [2] relates to Echinochloa crus-galli (ECHCG). The assay is described as above. The note with it: 312 h, visual evaluation after 13 days, read-out: Percentage phytotoxicity ECHCG. Put shortly:
as §1

Assay [3] concerns Amaranthus retroflexus (AMARE). The assay is described as above. The note with it: 312 h, visual evaluation after 13 days, read-out: Percentage phytotoxicity AMARE. In outline:
as §1

For assay [4], the system named is Digitaria sanguinalis (DIGSA). Briefly: Test 2 glasshouse assay (IF50 formulation, X-77), pre-emergence herbicidal activity. The note with it: 480 h, 20DAA, read-out: Percentage phytotoxicity DIGSA. The procedure: (§2) Seeds of a variety of monocotyledonous and dicotyledonous test plants are sown in standard soil in pots. The plants are cultivated for one day (for pre-emergence) or for about 12 days (for post-emergence) under controlled conditions in a glasshouse (warm climate species at 24/18° C., cool climate species at 20/16° C., both at day/night; 16 hours light; 65% humidity).
(§3) An “instant formulation”, known as the “IF50”, containing 50 g/liter (i.e. 5% w/v) of the “technical” (i.e. unformulated) active ingredient is prepared by dissolving the active ingredient in a mixture of organic solvents and emulsifier, details of which are provided in the Table below. This IF50 is then mixed with a small, variable amount of acetone to aid dissolution, before addition of a 0.2% v/v aqueous solution of the adjuvant X-77 (which is a mixture of alkyl aryl polyoxyethylene glycols and free fatty acids in isopropanol, CAS Registry number 11097-66-8), as the aqueous diluent, to form an aqueous spray solution which contains a predetermined concentration of the active ingredient (which varies depending on the application rate of the active ingredient to the plants) and 0.2% v/v of the adjuvant X-77. This aqueous spray solution is then sprayed onto the plants, after one day's cultivation (for pre-emergence), or after about 12 days' cultivation (range=10-13 days) (for post-emergence).
(§4) The test plants are then grown on, in a glasshouse (greenhouse) under controlled conditions (warm climate species at 24/18° C., cool climate species at 20/16° C., both at day/night; 16 hours light; 65% humidity) and are watered twice daily. 15 days after application of the test herbicide (15DAA) (for post-emergence), and 20 days after application of the test herbicide (20DAA) (for pre-emergence), the test plants are evaluated visually, and an assessed percentage phytotoxicity score is given for each herbicidal application on each plant species (with 100%=total damage to plant; 0%=no damage to plant).
(§5) Warm climate (“warm season”) grassy monocotyledonous weeds: Setaria faberi (SETFA), Panicum miliaceum (PANMI), Sorghum vulgare Pers. (SORVU) (or Sorghum bicolor (L) Moench ssp. Bicolor), Digitaria sanguinalis (DIGSA), Echinochloa crus-galli (ECHCG), and Brachiaria plantaginea (BRAPL).

The subject of assay [5] is Sorghum vulgare Pers. (SORVU). The assay is described as above. Particulars: Sorghum bicolor, 480 h, 20DAA, read-out: Percentage phytotoxicity SORVU. On the procedure:
as §2, §3, §4, §5

The test system of assay [6] is Panicum miliaceum (PANMI). The assay is described as above. The note with it: 480 h, 20DAA, read-out: Percentage phytotoxicity PANMI. On the procedure:
as §2, §3, §4, §5

Assay [7] deals with Echinochloa crus-galli (ECHCG). Described as above. The note with it: 480 h, 20DAA, read-out: Percentage phytotoxicity ECHCG. On the procedure: as §2, §3, §4, §5
Assay [8] has as its system Setaria faberi (SETFA). The description is as above. The note with it: 480 h, 20DAA, read-out: Percentage phytotoxicity SETFA. On the procedure: as §2, §3, §4, §5
Assay [9] deals with Brachiaria plantaginea (BRAPL). The assay is described as above. The note with it: Urochloa plantaginea, 480 h, 20DAA, read-out: Percentage phytotoxicity BRAPL. On the procedure: as §2, §3, §4, §5
Assay [10] has as its system Lolium perenne (LOLPE). Described as above. Particulars: 480 h, 20DAA, read-out: Percentage phytotoxicity LOLPE. On the procedure:
as §2, §3, §4
Cool climate (“cool season”) grassy monocotyledonous weeds: Alopecurus myosuroides (ALOMY), Avena fatua (AVEFA), Lolium perenne (LOLPE).

The subject of assay [11] is Alopecurus myosuroides (ALOMY). Briefly: Test 1 glasshouse assay, post-emergence herbicidal activity. Particulars: 312 h, after 13 days, read-out: Percentage phytotoxicity ALOMY. In outline:
(§6)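 Plants sprayed 8 days after sowing with active ingredient in acetone/water (50:50) containing 0.5% Tween 20, grown in glasshouse at 24/16°C day/night, 14 h light, 65% humidity. Phytotoxicity scored visually after 13 days as percentage damage (100% = total damage; 0% = none).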

For assay [12], the system named is Echinochloa crus-galli (ECHCG). The description is as above. The note with it: 312 h, after 13 days, read-out: Percentage phytotoxicity ECHCG. In outline:
as §6

Assay [13] relates to Abutilon theophrasti (ABUTH). The assay can be described thus: Test 1 glasshouse assay, pre-emergence herbicidal activity. The note with it: 312 h, visual evaluation after 13 days, read-out: Percentage phytotoxicity ABUTH. Put shortly: as §1
The mark [14] stands for this setting: post-emergence (Example 1B Table 1).
The mark [15] stands for this setting: post-emergence (Example 1B Table 1), 30 g/ha.
Setting [16] is: post-emergence (Example 1B Table 2).

Turning to `C#CCC1CC(=O)C(c2c(C)cc(-c3ccc(F)cc3)cc2C)C1=O` (stereo not shown) [Compound A1, 2-[4-(4-fluorophenyl)-2,6-dimethyl-phenyl]-4-prop-2-ynylcyclopentane-1,3-dione], the pest or weed control at 250 g/ha in assay [1] worked out at 100%; in assay [2], 100%; in assay [3], 80%; in assay [11] (setting [14]), 100%; in assay [12] (setting [14]), 100%. For the same compound, the pest or weed control at 125 g/ha in [4] is 100%; in [5] it was 90%; in [6], 100%; in [7], 90%; in [8], 100%; in [9], 90%. In addition, the pest or weed control at 125 g/ha in assay [10] came to 80%. Further, the pest or weed control at 62.5 g/ha is 90% in assay [11] (setting [14]) and 100% in [12] (setting [14]).
Consider `C#CCC1CC(=O)C(c2c(Cl)cc(-c3ccc(Cl)cn3)cc2OC)C1=O` (stereo not shown) [Compound A10], for which the pest or weed control at 250 g/ha in assay [1] came to 100%; in [2], 100%; in [13] it was 60%; in assay [3], 100%; in assay [4] it was 100%; in [5], 100%. Further, the pest or weed control at 250 g/ha in assay [6] was 100%; in assay [7], 100%; in assay [8] it was 100%; in assay [10] it was 70%; in assay [11] (setting [14]), 100%; in [11] (setting [16]), 100%. Besides, the pest or weed control at 250 g/ha in assay [12] (setting [14]) and in [12] (setting [16]) was 100% throughout. For the same compound, the pest or weed control at 30 g/ha in [11] (setting [15]) was 90%; in assay [12] (setting [15]) it was 100%. Moreover, the pest or weed control at 62.5 g/ha in assay [11] (setting [16]) and in assay [12] (setting [16]) was 100% each time.
Turning to `C#CCC1CC(=O)C(c2c(CC)cc(C)cc2CC)C1=O` (stereo not shown) [Compound A25, 2-(2,6-diethyl-4-methyl-phenyl)-4-(prop-2-ynyl)-cyclopentane-1,3-dione], the pest or weed control at 250 g/ha in [1] turned out to be 100%; in [2] it was 100%; in assay [4], 100%; in assay [5] it was 90%; in [6], 90%; in assay [7], 100%. The pest or weed control at 250 g/ha in assay [8] was 80%; in [9] (250 g/ha) it was 100%; in assay [10] it was 90%; in assay [11] (setting [16]), 100%; in assay [12] (setting [16]) it was 100%. The pest or weed control at 62.5 g/ha worked out at 90% in [11] (setting [16]) and 100% in [12] (setting [16]).
For the compound `C#CCC1C(=O)C(c2c(C)cc(C)cc2C)C(=O)C1CC#C` (stereo not shown) [Compound A42], the pest or weed control at 250 g/ha was 100% in assay [1], 80% in assay [2], 90% in assay [11] (setting [16]) and 100% in assay [12] (setting [16]). Further, the pest or weed control at 500 g/ha in [4] (500 g/ha) is 70%; in [5] (500 g/ha), 80%; in assay [6] (500 g/ha), 100%; in [7] (500 g/ha), 100%; in assay [8] (500 g/ha), 80%; in assay [9] (500 g/ha), 100%. Besides, the pest or weed control at 500 g/ha in assay [10] (500 g/ha) came to 100%.
For `C#CCC1CC(OC(C)=O)=C(c2c(C)cc(-c3ccc(F)cc3)cc2C)C1=O` (stereo not shown) [Compound A45], the pest or weed control at 250 g/ha turned out to be 100% in [1]; 100% in [2]; 90% in [3]; 100% in assay [11] (setting [14]); 100% in assay [12] (setting [14]). In addition, the pest or weed control at 125 g/ha in assay [4] was 90%; in assay [5], 80%; in [6], 100%; in [7], 80%; in assay [8] it was 90%; in [9] it was 90%. In addition, the pest or weed control at 125 g/ha in assay [10] was 90%. In addition, the pest or weed control at 62.5 g/ha in assay [11] (setting [14]) stood at 90%; in assay [12] (setting [14]), 100%.
